PMC9658812, “New Pyrimidine-5-Carbonitriles as COX-2 Inhibitors: Design, Synthesis, Anticancer Screening, Molecular Docking, and In Silico ADME Profile Studies” (Molecules, 2022)
“And” between values parts separate entries of the source, which are not always exact repeats. Equal values may be shown once. Read-outs that look alike come from different tables or passages of the source. One block for each compound: values may come before it.

Assays:
[1] = system: A498 cells (renal carcinoma); test: MTT cytotoxicity assay, A498; conditions: for IC50: Homo sapiens, A498, 24 h, read-out: Cytotoxicity IC50 A498
Protocol: (§1) Breast carcinoma (MCF-7), renal cell carcinoma (A498), lung cancer (A549), and liver carcinoma (HepG2) cell lines, in addition to non-tumorigenic WI-38 cell lines, were collected from the American Type Culture Collection. The cells were grown in DMEM (Invitrogen/Life Technologies) containing 1% penicillin-streptomycin, 10 µg/mL of insulin (Sigma), and 10% FBS (Hyclone).
(§2) To check the possible cellular toxicity, synthesized compounds were subjected to the MTT [3-(4,5-dimethylthiazol-2-yl)-2,5-diphenyltetrazolium bromide] assay against the MCF7, A549, A498, and HepG2 cell lines. […] Later, 2.0–3.0 mL of Trypsin EDTA solution was added into the flask containing the cell layers for 5–15 min to disperse the cell layer, which was observed through an inverted microscope. By gently pipetting, aspirated cells were added into a 6.0–8.0 mL growth medium. […] An amount of 20 μL of a 5-mg/mL MTT solution was applied after a 24-h drug-treatment period, and it was incubated for 4 h. To dissolve the produced purple formazan, each well received 100 μL of dimethyl sulfoxide (DMSO).

MCF-7 cells [2] = test: Apoptosis determination by Annexin-V assay; type: cell-based; conditions: MCF-7, IC50 concentration
Protocol: A biparametric cytofluorimetric analysis was performed using the Annexin-V assay to verify the ability of compound 5d at its IC50 concentration to trigger apoptosis. When compared to the control, compound 5d increased the proportion of early and late apoptotic cells in MCF-7 cells by nearly 13- and 60-fold, respectively, when compared to control cells, which had 0.53% and 0.25% early and late apoptotic cells, respectively.
The MCF-7 cell culture was treated with an IC50 of compound 5d for 48 h. The cancer cells were then suspended in PBS, centrifuged, and preserved in 99% ethanol (ice-cold). Cells suspended in ethanol were centrifuged for 5 min before being suspended in PBS and re-centrifuged once again. The supernatant was decanted, and the cells were stained at 37 °C with annexin V fluorescein isothiocyanate and PI using the apoptosis detection kit (BD Biosciences, San Jose, CA, USA) following the manufacturer’s instructions. A flow cytometer was used to examine the binding of annexin V-FITC and PI. The FACS Calibur was used to assess the cells, and Phoenix Flow Systems and Verity Software House were employed to calculate their distributions.

[3] = system: MCF7 cells (breast carcinoma); test: MTT cytotoxicity assay, MCF7; conditions: for IC50: Homo sapiens, MCF7, 24 h, read-out: Cytotoxicity IC50 MCF7
Protocol: as §1, §2

MCF-7 cells [4] = test: Cell cycle analysis by flow cytometry (PI); type: cell-based
Protocol: These findings imply that compound 5d’s cytotoxicity was proven by the arrest of cell growth at the G2/M phase.
Compound 5d was applied to MCF-7 cell culture for 48 h at its IC50 concentration. Briefly, cells were rinsed twice with phosphate buffer saline (PBS) (ice-cold) and then centrifuged and/or fixed in 70% (v/v) ethanol (ice-cold). The solution was rinsed with PBS, suspended with RNase (0.1 mg/mL), stained with propidium iodide (PI) ([…]), and analyzed via flow cytometry utilizing the FACS Calibur (Becton Dickinson, Franklin Lakes, NJ, USA). Through Cell-Quest software (Becton Dickinson), cell cycle distributions were calculated.

[5] = system: A549 cells (non-small-cell lung cancer); test: MTT cytotoxicity assay, A549; conditions: for IC50: Homo sapiens, A549, 24 h, read-out: Cytotoxicity IC50 A549
Protocol: as §1, §2

[6] = system: HepG2 cells (liver carcinoma); test: MTT cytotoxicity assay, HepG2; conditions: for IC50: Homo sapiens, HepG2, 24 h, read-out: Cytotoxicity IC50 HepG2
Protocol: as §1, §2

human COX-2 = target: T1, human COX-2 (Homo sapiens, UniProt P35354); test: COX-2 inhibition assay (fluorometric inhibitor screening kit); type: biochemical; conditions: for inhibition at 10 µM / inhibition at 1 µM / inhibition at 0.1 µM / inhibition at 0.01 µM / inhibition at 0.001 µM: read-out: COX-2 Inhibition (%)
T1 construct: purchased Biovision, Zurich, Switzerland
T1 sequence (P35354 18-604): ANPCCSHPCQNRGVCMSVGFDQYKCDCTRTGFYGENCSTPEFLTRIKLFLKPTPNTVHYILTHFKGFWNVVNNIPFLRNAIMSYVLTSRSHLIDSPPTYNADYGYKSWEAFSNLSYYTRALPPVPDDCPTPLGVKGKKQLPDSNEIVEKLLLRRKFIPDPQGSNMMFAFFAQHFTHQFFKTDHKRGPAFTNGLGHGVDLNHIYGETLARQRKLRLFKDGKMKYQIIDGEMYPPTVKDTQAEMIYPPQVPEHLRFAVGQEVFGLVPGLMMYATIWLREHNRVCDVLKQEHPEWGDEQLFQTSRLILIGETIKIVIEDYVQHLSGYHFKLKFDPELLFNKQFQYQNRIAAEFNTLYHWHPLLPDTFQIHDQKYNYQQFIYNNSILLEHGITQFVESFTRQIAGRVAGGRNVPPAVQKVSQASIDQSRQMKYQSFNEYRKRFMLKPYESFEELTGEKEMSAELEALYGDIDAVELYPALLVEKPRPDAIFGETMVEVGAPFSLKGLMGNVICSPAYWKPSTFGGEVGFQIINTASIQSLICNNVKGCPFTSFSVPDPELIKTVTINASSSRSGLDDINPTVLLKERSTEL
Excerpt: Fluorometric inhibitor screening kits (Biovision, Zurich, Switzerland) were utilized for the COX-2 enzyme inhibition test, as described before.

[7] = system: WI-38 cells (normal cell derived from lung tissue); test: Cytotoxicity on non-tumorigenic WI-38 cell line; conditions: Homo sapiens, WI-38, read-out: WI-38 IC50
Protocol: as §1, §2

MCF-7 = conditions: breast cancer cell line; cited from earlier work
[8] = system: MDA-MB-231 breast cancer cell line; parameters: method as in PMID 28486908; conditions: cited from earlier work
[9] = system: gastric MGC-803 cancer cells; parameters: method as in PMID 25610955, PMID 25180925; conditions: cited from earlier work
HeLa cell lines = system: HeLa cell lines; parameters: method as in doi:10.1007/s00044-012-0051-9; conditions: anticancer activity in vitro; cited from earlier work
COX-2 = conditions: cited from earlier work
[10] = MCF-7, compound at its IC50 concentration, 48 h

melting point: 291 to 293 °C
inhibition at 10 µM (human COX-2; 10^−5 M, mean of three experiments ± SD): 41.8 ± 0.91%
inhibition at 1 µM (human COX-2; 10^−6 M, mean of three experiments ± SD): 35.9 ± 0.72%
inhibition at 0.1 µM (human COX-2; 10^−7 M, mean of three experiments ± SD): 23.1 ± 0.25%
inhibition at 0.01 µM (human COX-2; 10^−8 M, mean of three experiments ± SD): 76.1 ± 1.05%
inhibition at 0.001 µM (human COX-2; 10^−9 M, mean of three experiments ± SD): 60.7 ± 1.09%
IC50 (human COX-2; human COX-2 assay kit, three experiments): 160 ± 10 nM
SMILES: COc1ccc(-c2nc(NS(=O)(=O)c3ccc(C(F)(F)F)cc3)nc(OC)c2C#N)cc1 [Compound 5d, N-(5-Cyano-4-methoxy-6-(4-methoxyphenyl)pyrimidin-2-yl)-4-(trifluoromethyl)benzene sulfonamide]
IC50 [1]: 2 ± 0.08 nM
fold more cytotoxic than doxorubicin, A498 ([1]; versus doxorubicin): ~3.5 fold
increase of proportion of early apoptotic cells versus control (MCF-7 cells [2]): ~13 fold
increase of proportion of late apoptotic cells versus control (MCF-7 cells [2]): ~60 fold
proportion of necrosis versus control (MCF-7 cells [2]): three-fold
Apoptosis Early (MCF-7 cells [2]; 48 h): 6.78 ± 0.25%
Apoptosis Late (MCF-7 cells [2]; 48 h): 14.96 ± 1.10%
Necrosis (MCF-7 cells [2]; 48 h): 2.83 ± 0.47%
IC50 [3]: 1 ± 0.03 nM
fold more cytotoxic than doxorubicin, MCF7 ([3]; versus doxorubicin): about 9 fold
accumulation of cell population in G2/M phase compared to control (MCF-7 cells [4]; MCF-7, IC50 concentration): 5 times
accumulation of cell population in sub-G1 phase compared to control (MCF-7 cells [4]; MCF-7, IC50 concentration): 16 times
%G0-G1 (MCF-7 cells [4]; [10]): 24.39 ± 3.01 %
%G2/M (MCF-7 cells [4]; [10]): 58.37 ± 0.52 %
%Pre-G1 (MCF-7 cells [4]; [10]): 26.16 ± 1.53%
%S (MCF-7 cells [4]; [10]): 16.23% and 16.23 ± 1.23 %
IC50 [5]: 1 ± 0.05 nM
fold more cytotoxic than doxorubicin, A549 ([5]; versus doxorubicin): ~13 fold
IC50 [6]: 9 ± 0.34 nM
fold more cytotoxic than doxorubicin, HepG2 ([6]; versus doxorubicin): ~2.8 fold
IC50 [7]: 91290 ± 470 nM

SMILES: COc1ccc(-c2nc(N3N=C(c4ccc(F)cc4)CCC3=O)n(C)c(=O)c2C#N)cc1 [Compound V]
IC50 (MCF-7): 2560 nM
IC50 [8]: 3430 nM

SMILES: COc1cccc2c1C(=O)c1c(O)c3c(c(O)c1C2=O)C[C@@](O)(C(=O)CO)C[C@@H]3O[C@H]1C[C@H](N)[C@H](O)[C@H](C)O1 [Doxorubicin, doxorubicin, reference compound]
IC50 [1]: 7 ± 0.23 nM
IC50 [3]: 9 ± 0.26 nM
IC50 [5]: 13 ± 0.42 nM
IC50 [6]: 25 ± 0.55 nM
IC50 [7]: 8830 ± 90 nM

SMILES: C#CCSc1nc(NC(N)=S)c(C#N)c(-c2cc(OC)c(OC)c(OC)c2)n1 [III]
IC50 [9]: 4010 nM

SMILES: COc1ccc(-c2nc(Nc3ccc(S(N)(=O)=O)cc3)n3c(C)nnc3c2C#N)cc1OC [II]
IC50 (HeLa cell lines): 39 nM

inhibition at 0.001 µM (human COX-2): 17.1 ± 0.38%
inhibition at 0.01 µM (human COX-2): 24 ± 0.42%
inhibition at 0.1 µM (human COX-2): 29.4 ± 0.55%
inhibition at 1 µM (human COX-2): 36.4 ± 0.84%
inhibition at 10 µM (human COX-2): 69.5 ± 1.02%
SMILES: CS(=O)(=O)Nc1ccc([N+](=O)[O-])cc1Oc1ccccc1 [Nimesulide, reference compound]

SMILES: NS(=O)(=O)c1ccc(-c2nc(Cl)cc(NCc3cccs3)n2)cc1 [VII]
IC50 (COX-2; COX-2 inhibitor potency): 12.7 nM

SMILES: CS(=O)(=O)c1ccc(C2=C(c3ccccc3)C(=O)OC2)cc1 [rofecoxib]
IC50 (COX-2): 292 nM
